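Growth conditions: 96-well plates. Treatment: test compound, 48 hours, 5 concentrations. Analysis: linear interpolation between bracketing concentrations; unreached endpoints set to highest concentration. Here, GI50 denotes the concentration required for 50% inhibition of growth. TGI: concentration producing complete growth inhibition.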
Tests used:
Assay in all cases: NCI tumour cell line growth inhibition, 48 h
KM12 colon = test system: KM12 colon
HOP-62 NSCLC = test system: HOP-62 NSCLC
ACHN renal = test system: ACHN renal
EKVX NSCLC = test system: EKVX NSCLC
SN12C renal = test system: SN12C renal
HCC-2998 colon = test system: HCC-2998 colon
SK-MEL-28 melanoma = test system: SK-MEL-28 melanoma
BT-549 breast = test system: BT-549 breast
SK-MEL-5 melanoma = test system: SK-MEL-5 melanoma
HOP-92 NSCLC = test system: HOP-92 NSCLC
CAKI-1 renal = test system: CAKI-1 renal
NCI-H522 lung = test system: NCI-H522 lung
HCT-116 colon = test system: HCT-116 colon
SF-295 CNS = test system: SF-295 CNS
COLO 205 colon = test system: COLO 205 colon
SF-539 CNS = test system: SF-539 CNS
HS 578T breast = test system: HS 578T breast
MDA-MB-231 breast = test system: MDA-MB-231 breast
HT29 colon = test system: HT29 colon
MCF7 breast = test system: MCF7 breast
SW-620 colon = test system: SW-620 colon
RPMI-8226 leukemia = test system: RPMI-8226 leukemia
PC-3 prostate = test system: PC-3 prostate
M14 melanoma = test system: M14 melanoma
NCI/ADR-RES ovarian = test system: NCI/ADR-RES ovarian
NCI-H23 lung = test system: NCI-H23 lung
CCRF-CEM leukemia = test system: CCRF-CEM leukemia
SK-MEL-2 melanoma = test system: SK-MEL-2 melanoma
OVCAR-8 ovarian = test system: OVCAR-8 ovarian

CCN(CC)c1ccc(/C=C/c2ccc3cc(C)ccc3[n+]2CC)cc1
GI50 (KM12 colon): 103 nM
TGI (KM12 colon): 1890 nM
GI50 (HOP-62 NSCLC): 158 nM
TGI (HOP-62 NSCLC): 6210 nM
GI50 (ACHN renal): 336 nM
TGI (ACHN renal): 5670 nM
GI50 (EKVX NSCLC): 78.7 nM
TGI (EKVX NSCLC): 13200 nM
GI50 (SN12C renal): 124 nM
TGI (SN12C renal): 1200 nM
GI50 (HCC-2998 colon): 197 nM
TGI (HCC-2998 colon): 15300 nM
GI50 (SK-MEL-28 melanoma): 279 nM
TGI (SK-MEL-28 melanoma): 2190 nM
GI50 (BT-549 breast): 31.4 nM
TGI (BT-549 breast): 1390 nM
GI50 (SK-MEL-5 melanoma): 49.3 nM
TGI (SK-MEL-5 melanoma): 261 nM
GI50 (HOP-92 NSCLC): 147 nM
TGI (HOP-92 NSCLC): 870 nM
GI50 (CAKI-1 renal): 2030 nM
TGI (CAKI-1 renal): 12000 nM
GI50 (NCI-H522 lung): 83.5 nM
TGI (NCI-H522 lung): 2550 nM
GI50 (HCT-116 colon): 33 nM
TGI (HCT-116 colon): 2570 nM
GI50 (SF-295 CNS): 65.8 nM
TGI (SF-295 CNS): 864 nM
GI50 (COLO 205 colon): 124 nM
TGI (COLO 205 colon): 516 nM
GI50 (SF-539 CNS): 172 nM
TGI (SF-539 CNS): 10900 nM
GI50 (HS 578T breast): 1010 nM
TGI (HS 578T breast): 69000 nM
GI50 (MDA-MB-231 breast): 215 nM
TGI (MDA-MB-231 breast): 2160 nM
GI50 (HT29 colon): 77.1 nM
TGI (HT29 colon): 2190 nM
GI50 (MCF7 breast): 77.3 nM
TGI (MCF7 breast): 3260 nM
GI50 (SW-620 colon): 229 nM
TGI (SW-620 colon): 15600 nM
GI50 (RPMI-8226 leukemia): 29 nM
TGI (RPMI-8226 leukemia): 3660 nM
GI50 (PC-3 prostate): 66.4 nM
TGI (PC-3 prostate): 6170 nM
GI50 (M14 melanoma): 182 nM
TGI (M14 melanoma): 1630 nM
GI50 (NCI/ADR-RES ovarian): 5690 nM
TGI (NCI/ADR-RES ovarian): 47400 nM
GI50 (NCI-H23 lung): 30.3 nM
TGI (NCI-H23 lung): 12500 nM
GI50 (CCRF-CEM leukemia): 299 nM
TGI (CCRF-CEM leukemia): 29900 nM
GI50 (SK-MEL-2 melanoma): 173 nM
TGI (SK-MEL-2 melanoma): 710 nM
GI50 (OVCAR-8 ovarian): 107 nM

Source: PubChem BioAssay (NCI)
